According to PMC6429356, “Development of Anthraquinone Analogues as Phosphoglycerate Mutase 1 Inhibitors” (Molecules, 2019):

Assays:
[1] = test system: A549 cells; assay: Cell viability assay (MTT, 72 h), A549; assay type: cell-based; conditions: Homo sapiens, proliferation, mean ± s.d. (n = 3)
Procedure: (§1) The H1299 cell line was obtained from Guangzhou Jenniobio Biotechnology Co., Ltd. (Guangzhou, China), PC9 and A549 cells were gifted from Deng Jiong’s lab in the School of Medicine, Shanghai Jiao Tong University, Shanghai, China). H1299, PC9 cells were cultured in RPMI-1640 medium and A549 cells were cultured in F-12K medium containing 10% fetal bovine serum (FBS), 100 units/mL of Penicillin and 100 μg/mL Streptomycin. In cell viability assays, 2000 H1299 cells, A549 cells or 1000 PC9 cells per well were seeded in 96-well plate. After attachment for 24 h, the cells were treated with indicated inhibitor for 72 h. After incubation with 0.5 mg/mL methylthiazolyldiphenyl-tetrazolium bromide (MTT) for 4 h, cell viability was measured as the OD at 570 nm.

[2] = biological target: T1, PGAM1 (Homo sapiens, UniProt P18669); assay: PGAM1 enzymatic assay (enolase-pyruvate kinase-LDH coupled, OD 340 nm); assay type: biochemical; conditions: for IC50: optimized enzymatic assay, mean ± s.d. (n = 3); for inhibition at 10 µM: 10 μM compound, mean ± s.d. (n = 2)
T1 construct: His6 (C); made in house
T1 sequence (P18669 whole entry): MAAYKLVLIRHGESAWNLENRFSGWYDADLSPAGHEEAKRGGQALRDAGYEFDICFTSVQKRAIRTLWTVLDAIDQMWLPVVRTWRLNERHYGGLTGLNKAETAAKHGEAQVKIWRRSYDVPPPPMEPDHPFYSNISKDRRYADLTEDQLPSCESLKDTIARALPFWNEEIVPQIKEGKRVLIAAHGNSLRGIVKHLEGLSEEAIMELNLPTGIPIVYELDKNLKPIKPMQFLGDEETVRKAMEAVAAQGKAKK
Procedure: (§2) Firstly, 1 μL inhibitor in dimethyl sulfoxide (DMSO) incubated with 49 μL 4.6 nM recombinant PGAM1, then 50 μL enzyme mix containing 3 units/mL enolase (Sigma-Aldrich, Saint Louis, MO, USA), 3 units/mL recombinant pyruvate kinase M2 (Sigma-Aldrich), 0.6 units/mL recombinant lactatdehydrogenase (LDH, Sigma-Aldrich), 100 mM Tris-HCl, 100 mM KCl, 5 mM MgCl2, 1 mM adenosine diphosphate (ADP), 0.2 mM the reduced form of nicotinamide adenine dinucleotide (NADH) and 4 mM 3PG was added. PGAM1 activity was measured as the decrease in OD at 340 nm. In addition, we performed a counter screening in which 4mM 2PG was added to 50 μL reaction mix containing the indicated inhibitor, 3 units/mL enolase (Sigma-Aldrich), 3 units/mL recombinant pyruvate kinase M2 (Sigma-Aldrich), 0.6 units/mL recombinant LDH (Sigma-Aldrich), 100 mM Tris-HCl, 100 mM KCl, 5 mM MgCl2, 1 mM ADP and 0.2 mM NADH. The other three enzyme activity was measured as the decrease in OD at 340 nm.

[3] = test system: PC9 cells; assay: Cell viability assay (MTT, 72 h), PC9; assay type: cell-based; conditions: Homo sapiens, PC-9, proliferation, mean ± s.d. (n = 3)
Procedure: as §1

[4] = test system: H1299 cells; assay: Cell viability assay (MTT, 72 h), H1299; assay type: cell-based; conditions: Homo sapiens, NCI-H1299, proliferation, mean ± s.d. (n = 3)
Procedure: as §1

[5] = test system: enolase-pyruvate kinase-LDH; assay: Counter screening: control linked enzyme assay with 2PG; assay type: biochemical; conditions: 0.5 μM compound, pyruvate kinase M2, LDH without PGAM1, mean ± s.d. (n = 2)
Procedure: as §2

Row | IC50 [1] | IC50 [2] | IC50 [3] | IC50 [4] | Inhibition in the Control Linked Enzyme Assay (0.5 μM) [5] | inhibition at 10 µM [2] | SMILES
1 | 9.9 ± 0.2 µM | 7010 ± 920 nM | 49.1 ± 1.9 µM | 10.3 ± 0.8 µM | – | – | COc1c(N(C)S(=O)(=O)c2ccc(Cl)cc2)cc2c(c1O)C(=O)c1ccccc1C2=O [Compound 14d, 4-chloro-N-(4-hydroxy-3-methoxy-9,10-dioxo-9,10-dihydroanthracen-2-yl)-N-methyl-benzenesulfonamide]
2 | – | 890 ± 330 nM | – | 34.6 ± 2.4 µM | 0.5 ± 3.2% | – | O=C1c2ccccc2C(=O)c2c1cc(NS(=O)(=O)c1c(Cl)cccc1Cl)c(O)c2O [Compound 9k, 2,6-Dichloro-N-(3,4-dihydroxy-9,10-dioxo-9,10-dihydroanthracen-2-yl) benzenesulfonamide]
3 | – | 790 ± 40 nM | – | 31.3 ± 1.9 µM | 10.2 ± 3.0% | – | O=C1c2ccccc2C(=O)c2c1cc(NS(=O)(=O)c1ccccc1F)c(O)c2O [Compound 9g, N-(3,4-Dihydroxy-9,10-dioxo-9,10-dihydroanthracen-2-yl)-2-fluorobenzenesulfonamide]
4 | – | 610 ± 120 nM | – | 26.3 ± 4.5 µM | 6.7 ± 0.2% | – | N#Cc1ccc(S(=O)(=O)Nc2cc3c(c(O)c2O)C(=O)c2ccccc2C3=O)cc1 [Compound 9e, 4-Cyano-N-(3,4-dihydroxy-9,10-dioxo-9,10-dihydroanthracen-2-yl) benzenesulfonamide]
5 | 10.3 ± 1.4 µM | 470 ± 70 nM | 13.4 ± 1.8 µM | 17.3 ± 3.9 µM | 1.9 ± 0.1% | – | O=C1c2ccccc2C(=O)c2c1cc(NS(=O)(=O)c1ccc(I)cc1)c(O)c2O [Compound 9p, 4-Iodo-N-(3,4-dihydroxy-9,10-dioxo-9,10-dihydroanthracen-2-yl) benzenesulfonamide]
6 | – | – | – | – | – | 14.3 ± 5.9% | O=C(O)COc1ccc2c(c1OCC(=O)O)C(=O)c1ccccc1C2=O [Compound 6b, 2,2′-((9,10-dioxo-9,10-dihydroanthracene-1,2-diyl)bis(oxy)) diacetic acid]
7 | – | > 10000 nM | – | 28.5 ± 0.6 µM | – | – | CS(=O)(=O)Oc1c(NS(=O)(=O)c2ccc(Cl)cc2)cc2c(c1O)C(=O)c1ccccc1C2=O [Compound 14g, 3-((4-chlorophenyl)sulfonamido)-1-hydroxy-9,10-dioxo-9,10-dihydroanthracen-2-yl methanesulfonate]
8 | – | 200 ± 40 nM | – | 50 ± 0.6 µM | 6.1 ± 0.8% | – | O=C1c2ccccc2C(=O)c2c1cc(NS(=O)(=O)c1ccccc1Br)c(O)c2O [Compound 9n, 2-Bromo-N-(3,4-dihydroxy-9,10-dioxo-9,10-dihydroanthracen-2-yl) benzenesulfonamide]
9 | – | 470 ± 80 nM | – | 25.8 ± 2.2 µM | −2.9 ± 0.3% | – | O=C1c2ccccc2C(=O)c2c1cc(NS(=O)(=O)c1ccc([N+](=O)[O-])cc1)c(O)c2O [Compound 9b, N-(3,4-Dihydroxy-9,10-dioxo-9,10-dihydroanthracen-2-yl)-4-nitrobenzenesulfonamide]
10 | – | 260 ± 20 nM | – | 28.1 ± 1.9 µM | −0.1 ± 2.5% | – | O=C1c2ccccc2C(=O)c2c1cc(NS(=O)(=O)c1ccc(Br)cc1)c(O)c2O [Compound 9m, 4-Bromo-N-(3,4-dihydroxy-9,10-dioxo-9,10-dihydroanthracen-2-yl) benzenesulfonamide]
11 | – | 890 ± 130 nM | – | 45.7 ± 2.7 µM | 0.06 ± 0.4% | – | O=C1c2ccccc2C(=O)c2c1cc(NS(=O)(=O)c1cccc(F)c1F)c(O)c2O [Compound 9h, N-(3,4-Dihydroxy-9,10-dioxo-9,10-dihydroanthracen-2-yl)-2,3-difluorobenzenesulfonamide]
12 | – | 2920 ± 110 nM | – | 26.9 ± 2.1 µM | – | – | COc1c(NS(=O)(=O)c2ccc(Cl)cc2)cc2c(c1O)C(=O)c1ccccc1C2=O [Compound 14c, 4-chloro-N-(4-hydroxy-3-methoxy-9,10-dioxo-9,10-dihydroanthracen-2-yl) benzene-sulfonamide]
13 | – | – | – | – | – | -0.6 ± 1% | CCOC(=O)COc1ccc2c(c1OCC(=O)OCC)C(=O)c1ccccc1C2=O [Compound 6a, diethyl 2,2′-((9,10-dioxo-9,10-dihydroanthracene-1,2-diyl)bis(oxy)) diacetate]
14 | – | – | – | – | – | 10% | CCOC(=O)COc1cc(NS(=O)(=O)c2ccc(Cl)cc2)c2c(c1O)C(=O)c1ccccc1C2=O [Compound 12, ethyl 2-((4-((4-chlorophenyl)sulfonamido)-1-hydroxy-9,10-dioxo-9,10-dihydroanthracen-2-yl)oxy) acetate]
15 | – | – | – | – | – | 20.2 ± 2.2% | CN(C)C(=O)COc1ccc2c(c1O)C(=O)c1ccccc1C2=O [Compound 6e, 2-((1-hydroxy-9,10-dioxo-9,10-dihydroanthracen-2-yl)oxy)-N,N-dimethylacetamide]
16 | – | 280 ± 70 nM | – | 23.7 ± 1.1 µM | −2.0 ± 5.1% | – | O=C1c2ccccc2C(=O)c2c1cc(NS(=O)(=O)c1ccc(Cl)cc1Cl)c(O)c2O [Compound 9j, 2,4-Dichloro-N-(3,4-dihydroxy-9,10-dioxo-9,10-dihydroanthracen-2-yl) benzenesulfonamide]
17 | – | > 10000 nM | – | – | – | – | CCOC(=O)COc1c(NS(=O)(=O)c2ccc(Cl)cc2)cc2c(c1O)C(=O)c1ccccc1C2=O [Compound 14a, ethyl 2-((3-((4-chlorophenyl)sulfonamido)-1-hydroxy-9,10-dioxo-9,10-dihydroanthracen-2-yl)oxy) acetate]
18 | – | 540 ± 40 nM | – | 20.7 ± 0.6 µM | 8.0 ± 5.0% | – | O=C1c2ccccc2C(=O)c2c1cc(NS(=O)(=O)c1ccc(C(F)(F)F)cc1)c(O)c2O [Compound 9a, N-(3,4-Dihydroxy-9,10-dioxo-9,10-dihydroanthracen-2-yl)-4-(trifluoromethyl) benzenesulfonamide]
19 | 17 ± 4.9 µM | 2200 ± 500 nM | 44.2 ± 1.5 µM | 13.9 ± 3.6 µM | – | – | O=C1c2ccccc2C(=O)c2c1cc(NS(=O)(=O)c1ccccc1OC(F)(F)F)c(O)c2O [Compound 9d, N-(3,4-Dihydroxy-9,10-dioxo-9,10-dihydroanthracen-2-yl)-2-(trifluoromethoxy) benzenesulfonamide]
20 | – | 540 ± 70 nM | – | 24.2 ± 2.6 µM | 5.7 ± 0.7% | – | O=C1c2ccccc2C(=O)c2c1cc(NS(=O)(=O)c1ccc(F)cc1)c(O)c2O [Compound 9f, N-(3,4-Dihydroxy-9,10-dioxo-9,10-dihydroanthracen-2-yl)-4-fluorobenzenesulfonamide]
21 | – | 350 ± 5 nM | – | 24.5 ± 0.2 µM | 7.7 ± 0.2% | – | O=C1c2ccccc2C(=O)c2c1cc(NS(=O)(=O)c1cccc(Br)c1)c(O)c2O [Compound 9o, 3-Bromo-N-(3,4-dihydroxy-9,10-dioxo-9,10-dihydroanthracen-2-yl) benzenesulfonamide]
22 | – | – | – | – | – | 0% | CCOC(=O)COc1ccc2c(c1O)C(=O)c1ccccc1C2=O [Compound 6c]
23 | – | – | – | – | – | 34% | O=C(O)COc1cc(NS(=O)(=O)c2ccc(Cl)cc2)c2c(c1O)C(=O)c1ccccc1C2=O [Compound 13, 2-((4-((4-chlorophenyl)sulfonamido)-1-hydroxy-9,10-dioxo-9,10-dihydroanthracen-2-yl)oxy) acetic acid]
24 | – | 260 ± 30 nM | – | 26.4 ± 3.8 µM | −2.3 ± 2.4% | – | O=C1c2ccccc2C(=O)c2c1cc(NS(=O)(=O)c1ccccc1I)c(O)c2O [Compound 9q, 2-Iodo-N-(3,4-dihydroxy-9,10-dioxo-9,10-dihydroanthracen-2-yl) benzenesulfonamide]
25 | – | 2000 ± 200 nM | – | > 100 µM | – | – | NNC(=O)COc1c(NS(=O)(=O)c2ccc(Cl)cc2)cc2c(c1O)C(=O)c1ccccc1C2=O [Compound 14f, 4-chloro-N-(3-(2-hydrazinyl-2-oxoethoxy)-4-hydroxy-9,10-dioxo-9,10-dihydroanthracen-2-yl) benzenesulfonamide]
26 | – | > 10000 nM | – | – | – | – | O=C(O)COc1c(NS(=O)(=O)c2ccc(Cl)cc2)cc2c(c1O)C(=O)c1ccccc1C2=O [Compound 14b, 2-((3-((4-chlorophenyl)sulfonamido)-1-hydroxy-9,10-dioxo-9,10-dihydroanthracen-2-yl)oxy) acetic acid]
27 | – | > 10000 nM | – | – | – | – | O=C1c2ccccc2C(=O)c2c1cc1c(c2O)OCCN1S(=O)(=O)c1ccc(Cl)cc1 [Compound 14e, 4-((4-chlorophenyl)sulfonyl)-12-hydroxy-3,4-dihydro-2H-anthra[2,3-b][1,4]-oxazine-6,11-dione]
28 | – | – | – | – | – | 5.5 ± 0.03% | O=C(O)COc1ccc2c(c1O)C(=O)c1ccccc1C2=O [Compound 6d]
